Reference: US11542313B2, “Incretin analogs and uses thereof” (Eli Lilly and Company, priority 2017, dated 2023)
Where two headings read alike, the source gives them in different places. *1 amine or outer side, *2 acyl side, *3 side chain or, on linkers, in order; H or OH if unused. Where a SMILES comes first, the peptide text is derived from it. Side-chain parts run from the residue outwards. [ ]: non-standard residue; d: D form. The star is where a group is joined. C20 diacid = O=C(O)CCCCCCCCCCCCCCCCCCC(=O)*; γGlu = O=C(O)[C@H](CCC(=O)[*:2])N[*:1]; αMeL = CC(C)C[C@](C)(N)C(=O)O; AEEA = NCCOCCOCC(=O)O; Aib = CC(C)(N)C(=O)O

Columns and labels:
[1] = molecular target: T1, human glucagon receptor (GcgR) (Homo sapiens, UniProt P47871); experiment: Radioligand competition binding (SPA), human GcgR membranes
T1 construct: expressed in transfected cells; host or cells: HEK293 (membranes)
Excerpt: (§1) Radioligand competition binding assays are run to determine the equilibrium dissociation constant for exemplary compounds and comparator molecules.
(§2) Competition curves are plotted as the percent specific inhibition (y-axis) versus log concentration of compound (x-axis) and analyzed using a four parameter nonlinear regression fit with variable slope (ABase or Genedata).

[2] = molecular target: T2, human GIP receptor (GIPR) (Homo sapiens, UniProt P48546); experiment: Radioligand competition binding (SPA), human GIPR membranes
T2 construct: expressed in transfected cells; host or cells: HEK293 (membranes)
T2 sequence (P48546 22-466): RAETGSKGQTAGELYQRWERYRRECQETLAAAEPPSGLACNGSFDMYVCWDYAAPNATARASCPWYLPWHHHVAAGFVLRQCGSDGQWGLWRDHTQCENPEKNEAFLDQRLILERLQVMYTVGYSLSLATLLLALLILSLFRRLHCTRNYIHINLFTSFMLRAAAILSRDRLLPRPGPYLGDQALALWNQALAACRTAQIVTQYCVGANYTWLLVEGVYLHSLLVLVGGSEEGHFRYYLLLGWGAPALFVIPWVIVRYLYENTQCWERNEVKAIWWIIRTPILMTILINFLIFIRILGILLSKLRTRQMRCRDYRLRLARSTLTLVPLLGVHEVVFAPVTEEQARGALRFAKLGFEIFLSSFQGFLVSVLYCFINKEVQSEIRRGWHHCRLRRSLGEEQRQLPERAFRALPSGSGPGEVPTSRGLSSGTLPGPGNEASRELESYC
Excerpt: as §1, §2

GLP-1 receptor (GLP-1R) = molecular target: T3, GLP-1 receptor (GLP-1R) (Homo sapiens, UniProt P43220); experiment: Radioligand competition binding (SPA), human GLP-1R membranes
T3 construct: expressed in transfected cells; host or cells: HEK293 (membranes)
Excerpt: as §1, §2

hGcgR = molecular target: T4, hGcgR (Homo sapiens, UniProt P47871); experiment: cAMP assay in HEK293 cells expressing hGcgR, 0.1% casein; assay type: cell-based; settings: in the presence of 0.1% casein; read-out: cAMP EC50, GcGR
T4 construct: expressed in transfected cells; host or cells: HEK293

hGIPR = molecular target: T5, hGIPR (Homo sapiens, UniProt P48546); experiment: cAMP assay in HEK293 cells expressing hGIPR, 0.1% casein; assay type: cell-based; settings: in the presence of 0.1% casein; read-out: cAMP EC50, GIPR
T5 construct: expressed in transfected cells; host or cells: HEK293
T5 sequence (P48546 22-466): T2 sequence (P48546 22-466)

hGLP-1R = hGLP-1R (Homo sapiens, UniProt P43220); experiment: cAMP assay in HEK293 cells expressing hGLP-1R, 0.1% casein; assay type: cell-based; settings: in the presence of 0.1% casein; read-out: cAMP EC50, GLP-1R
[3] = Pharmacokinetics in male Sprague Dawley rats; settings: for CL/F / Tmax / half-life: male, Sprague-Dawley, rat, plasma, sc, 100 nmol/kg; for AUCINF_D_obs / Cmax/D: single subcutaneous 100 nMol/kg, male Sprague Dawley rats, n = 3
Experimental: The pharmacokinetics of the exemplary analogs are evaluated following a single subcutaneous administration of 100 nM/kg to male Sprague Dawley rats. Blood samples are collected over 120 hours, and resulting individual plasma concentrations are used to calculate pharmacokinetic parameters. Peptide plasma (K3 EDTA) concentrations are determined using a qualified LC/MS method that measured the intact mass of the analog. Each peptide and an analog as an internal standard are extracted from 100% specie specified plasma using methanol with 0.1% formic acid. A Thermo Q-Exactive, High Resolution Instrument, and a Thermo Easy Spray PepMap are combined for LC/MS detection.

[4] = HEK293 membranes, SPA, bacitracin present, mean, read-out: Ki, GcgR
[5] = HEK293 membranes, SPA, bacitracin present, mean, read-out: Ki, GIPR
[6] = HEK293 membranes, SPA, bacitracin present, mean, read-out: Ki, GLP-1R

T4 sequence (P47871 26-477): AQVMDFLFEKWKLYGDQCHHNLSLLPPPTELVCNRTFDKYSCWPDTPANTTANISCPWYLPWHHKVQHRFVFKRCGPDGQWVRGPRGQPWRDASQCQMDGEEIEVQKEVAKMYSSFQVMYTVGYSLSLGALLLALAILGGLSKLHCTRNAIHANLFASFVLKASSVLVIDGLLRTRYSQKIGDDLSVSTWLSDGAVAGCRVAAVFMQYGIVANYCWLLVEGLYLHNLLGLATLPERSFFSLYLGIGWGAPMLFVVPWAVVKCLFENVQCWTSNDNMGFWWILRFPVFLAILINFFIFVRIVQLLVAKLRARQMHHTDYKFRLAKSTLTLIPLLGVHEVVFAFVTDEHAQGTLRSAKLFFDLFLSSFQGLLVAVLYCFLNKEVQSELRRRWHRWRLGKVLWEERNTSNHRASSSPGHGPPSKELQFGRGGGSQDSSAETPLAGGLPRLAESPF
T1 sequence (P47871 26-477): as above
T3 sequence (P43220 24-463): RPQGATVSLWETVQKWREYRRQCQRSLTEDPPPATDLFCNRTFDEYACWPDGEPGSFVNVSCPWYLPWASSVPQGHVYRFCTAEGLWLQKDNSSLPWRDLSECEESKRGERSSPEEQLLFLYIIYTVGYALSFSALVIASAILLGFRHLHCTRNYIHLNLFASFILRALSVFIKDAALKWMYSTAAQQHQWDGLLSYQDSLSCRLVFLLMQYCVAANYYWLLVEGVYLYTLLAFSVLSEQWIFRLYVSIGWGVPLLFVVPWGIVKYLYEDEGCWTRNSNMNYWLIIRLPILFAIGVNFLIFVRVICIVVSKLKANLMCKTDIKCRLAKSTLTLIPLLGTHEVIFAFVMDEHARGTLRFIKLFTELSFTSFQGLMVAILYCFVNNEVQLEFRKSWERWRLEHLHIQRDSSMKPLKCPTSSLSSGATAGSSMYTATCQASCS
Chain of hGLP-1R (P43220 24-463): as above

Row | Compound | Ki [1, 4] | Ki [2, 5] | Ki (GLP-1 receptor (GLP-1R); [6]) | EC50 (hGcgR) | EC50 (hGIPR) | EC50 (hGLP-1R) | Ki [1] | Ki [2] | Ki (GLP-1 receptor (GLP-1R)) | CL/F [3] | Tmax [3] | half-life [3] | AUCINF_D_obs [3] | Cmax/D [3]
1 | CC[C@H](C)[C@H](NC(=O)[C@H](Cc1ccccc1)NC(=O)[C@H](C)NC(=O)[C@H](Cc1c[nH]cn1)NC(=O)[C@H](CCC(N)=O)NC(=O)[C@H](C)NC(=O)[C@H](CCCCNC(=O)COCCOCCNC(=O)CC[C@H](NC(=O)CCCCCCCCCCCCCCCCCCC(=O)O)C(=O)O)NC(=O)[C@H](CCCCN)NC(=O)[C@H](CC(=O)O)NC(=O)[C@H](CC(C)C)NC(=O)[C@](C)(CC(C)C)NC(=O)[C@@H](NC(=O)[C@H](CO)NC(=O)[C@H](Cc1ccc(O)cc1)NC(=O)[C@H](CC(=O)O)NC(=O)[C@H](CO)NC(=O)[C@@H](NC(=O)[C@H](Cc1ccccc1)NC(=O)[C@@H](NC(=O)CNC(=O)[C@H](CCC(N)=O)NC(=O)C(C)(C)NC(=O)[C@@H](N)Cc1ccc(O)cc1)[C@@H](C)O)[C@@H](C)O)[C@@H](C)CC)C(=O)N[C@@H](CCC(=O)O)C(=O)N[C@@H](Cc1ccc(O)cc1)C(=O)N[C@@H](CC(C)C)C(=O)N[C@@H](CC(C)C)C(=O)N[C@@H](C)C(=O)NC(C)(C)C(=O)NCC(=O)N1CCC[C@H]1C(=O)N[C@@H](CO)C(=O)N[C@@H](CO)C(=O)NCC(=O)N[C@@H](C)C(=O)N1CCC[C@H]1C(=O)N1CCC[C@H]1C(=O)N1CCC[C@H]1C(=O)N[C@@H](CO)C(N)=O [Example 2] (H-Y[Aib]QGTFTSDYSI[αMeL]LDKK([AEEA-γGlu-C20 diacid])AQHAFIEYLLA[Aib]GPSSGAPPPS-NH2) | 3.71 nM | 0.0665 nM | 4.5 nM | 0.0553 nM | 0.0474 nM | 0.207 nM | – | – | – | – | – | – | – | –
2 | CC[C@H](C)[C@H](NC(=O)[C@H](Cc1ccccc1)NC(=O)[C@H](C)NC(=O)[C@H](CCC(N)=O)NC(=O)[C@H](C)NC(=O)[C@H](C)NC(=O)[C@H](CCCCNC(=O)COCCOCCNC(=O)COCCOCCNC(=O)CC[C@H](NC(=O)CCCCCCCCCCCCCCCCCCC(=O)O)C(=O)O)NC(=O)[C@H](CCCCN)NC(=O)[C@H](CC(=O)O)NC(=O)[C@H](CC(C)C)NC(=O)[C@](C)(CC(C)C)NC(=O)[C@@H](NC(=O)[C@H](CO)NC(=O)[C@H](Cc1ccc(O)cc1)NC(=O)[C@H](CC(=O)O)NC(=O)[C@H](CO)NC(=O)[C@@H](NC(=O)[C@H](Cc1ccccc1)NC(=O)[C@@H](NC(=O)CNC(=O)[C@H](CCC(N)=O)NC(=O)C(C)(C)NC(=O)[C@@H](N)Cc1ccc(O)cc1)[C@@H](C)O)[C@@H](C)O)[C@@H](C)CC)C(=O)N[C@@H](CCC(=O)O)C(=O)N[C@@H](Cc1ccc(O)cc1)C(=O)N[C@@H](CC(C)C)C(=O)N[C@@H](CC(C)C)C(=O)N[C@@H](CCC(=O)O)C(=O)NC(C)(C)C(=O)NCC(=O)N1CCC[C@H]1C(=O)N[C@@H](CO)C(=O)N[C@@H](CO)C(=O)NCC(=O)N[C@@H](C)C(=O)N1CCC[C@H]1C(=O)N1CCC[C@H]1C(=O)N1CCC[C@H]1C(=O)N[C@@H](CO)C(N)=O [Example 5] (H-Y[Aib]QGTFTSDYSI[αMeL]LDKK([AEEA-AEEA-γGlu-C20 diacid])AAQAFIEYLLE[Aib]GPSSGAPPPS-NH2) | 0.422 nM | 0.179 nM | 36.7 nM | 0.0226 nM | 0.0757 nM | 0.147 nM | – | – | – | – | – | – | – | –
3 | CC[C@H](C)[C@H](NC(=O)[C@H](Cc1ccccc1)NC(=O)[C@H](C)NC(=O)[C@](C)(CCCCN)NC(=O)[C@H](CCC(N)=O)NC(=O)[C@H](C)NC(=O)[C@H](CCCCNC(=O)COCCOCCNC(=O)COCCOCCNC(=O)CC[C@H](NC(=O)CCCCCCCCCCCCCCCCCCC(=O)O)C(=O)O)NC(=O)[C@H](CCCCN)NC(=O)[C@H](CC(=O)O)NC(=O)[C@H](CC(C)C)NC(=O)[C@H](CC(C)C)NC(=O)[C@@H](NC(=O)[C@H](CO)NC(=O)[C@H](Cc1ccc(O)cc1)NC(=O)[C@H](CC(=O)O)NC(=O)[C@H](CO)NC(=O)[C@@H](NC(=O)[C@H](Cc1ccccc1)NC(=O)[C@@H](NC(=O)CNC(=O)[C@H](CCC(N)=O)NC(=O)C(C)(C)NC(=O)[C@@H](N)Cc1ccc(O)cc1)[C@@H](C)O)[C@@H](C)O)[C@@H](C)CC)C(=O)N[C@@H](CCC(=O)O)C(=O)N[C@@H](Cc1ccc(O)cc1)C(=O)N[C@@H](CC(C)C)C(=O)N[C@@H](CC(C)C)C(=O)N[C@@H](CCC(=O)O)C(=O)NCC(=O)NCC(=O)N1CCC[C@H]1C(=O)N[C@@H](CO)C(=O)N[C@@H](CO)C(=O)NCC(=O)N[C@@H](C)C(=O)N1CCC[C@H]1C(=O)N1CCC[C@H]1C(=O)N1CCC[C@H]1C(=O)N[C@@H](CO)C(N)=O [Example 8] | 30.4 nM | 0.0958 nM | 29.4 nM | 0.12 nM | 0.114 nM | 0.117 nM | – | – | – | – | – | – | – | –
4 | CC[C@H](C)[C@H](NC(=O)[C@H](Cc1ccccc1)NC(=O)[C@H](C)NC(=O)C(C)(C)NC(=O)[C@H](CCC(N)=O)NC(=O)[C@H](C)NC(=O)[C@H](CCCCNC(=O)COCCOCCNC(=O)COCCOCCNC(=O)CC[C@H](NC(=O)CCCCCCCCCCCCCCCCCCC(=O)O)C(=O)O)NC(=O)[C@H](CCCCN)NC(=O)[C@H](CC(=O)O)NC(=O)[C@H](CC(C)C)NC(=O)[C@H](CC(C)C)NC(=O)[C@@H](NC(=O)[C@H](CO)NC(=O)[C@H](Cc1ccc(O)cc1)NC(=O)[C@H](CC(=O)O)NC(=O)[C@H](CO)NC(=O)[C@@H](NC(=O)[C@H](Cc1ccccc1)NC(=O)[C@@H](NC(=O)CNC(=O)[C@H](CCC(N)=O)NC(=O)C(C)(C)NC(=O)[C@@H](N)Cc1ccc(O)cc1)[C@@H](C)O)[C@@H](C)O)[C@@H](C)CC)C(=O)N[C@@H](CCC(=O)O)C(=O)N[C@@H](Cc1ccc(O)cc1)C(=O)N[C@@H](CC(C)C)C(=O)N[C@@H](CC(C)C)C(=O)N[C@@H](CCC(=O)O)C(=O)NCC(=O)NCC(=O)N1CCC[C@H]1C(=O)N[C@@H](CO)C(=O)N[C@@H](CO)C(=O)NCC(=O)N[C@@H](C)C(=O)N1CCC[C@H]1C(=O)N1CCC[C@H]1C(=O)N1CCC[C@H]1C(=O)N[C@@H](CO)C(N)=O [Example 16] | – | – | – | – | – | – | 11.5 nM | 0.106 nM | 16.1 nM | 3.6 mL/h/kg | 20 h | 29.1 h | 274.9 hr*kg*nmol/L/nmol | 3.8 kg*nmol/L/nmol
5 | CC[C@H](C)[C@H](NC(=O)[C@H](Cc1ccccc1)NC(=O)[C@H](C)NC(=O)C(C)(C)NC(=O)[C@H](CCC(N)=O)NC(=O)[C@H](C)NC(=O)[C@H](CCCCNC(=O)COCCOCCNC(=O)CC[C@H](NC(=O)CCCCCCCCCCCCCCCCCCC(=O)O)C(=O)O)NC(=O)[C@H](CCCCN)NC(=O)[C@H](CC(=O)O)NC(=O)[C@H](CC(C)C)NC(=O)[C@H](CC(C)C)NC(=O)[C@@H](NC(=O)[C@H](CO)NC(=O)[C@H](Cc1ccc(O)cc1)NC(=O)[C@H](CC(=O)O)NC(=O)[C@H](CO)NC(=O)[C@@H](NC(=O)[C@H](Cc1ccccc1)NC(=O)[C@@H](NC(=O)CNC(=O)[C@H](CCC(N)=O)NC(=O)C(C)(C)NC(=O)[C@@H](N)Cc1ccc(O)cc1)[C@@H](C)O)[C@@H](C)O)[C@@H](C)CC)C(=O)N[C@@H](CCC(=O)O)C(=O)N[C@@H](Cc1ccc(O)cc1)C(=O)N[C@@H](CC(C)C)C(=O)N[C@@H](CC(C)C)C(=O)N[C@@H](CCC(=O)O)C(=O)NCC(=O)NCC(=O)N1CCC[C@H]1C(=O)N[C@@H](CO)C(=O)N[C@@H](CO)C(=O)NCC(=O)N[C@@H](C)C(=O)N1CCC[C@H]1C(=O)N1CCC[C@H]1C(=O)N1CCC[C@H]1C(=O)N[C@@H](CO)C(N)=O [Example 18] | – | – | – | – | – | – | 5.71 nM | 0.0835 nM | 8.06 nM | 3.6 mL/h/kg | 24 h | 34.8 h | 284.3 hr*kg*nmol/L/nmol | 5.0 kg*nmol/L/nmol
